Laboratory results reported in patent US11173137B2, “Compositions and methods to modulate chloride ion channel activity” (The Board of Trustees of the Leland Stanford Junior …, priority 2018, dated 2021).

Tests used:
[1] = biological target: Beta1 (Homo sapiens (Human), UniProt P08588); experiment: PDSP primary binding assay; conditions: primary binding assay at 10 μM
Experimental: (§1) Two exemplary compounds, FA44 and FA26, were screened against a panel of CNS receptors, transporters, and ion channels to examine specificity for CLC-2 in the brain. A comprehensive primary binding assay screen was performed through the NIH Psychoactive Drug Screening Program (PDSP) at UNC-Chapel Hill. Secondary or functional assays were performed for compounds showing >50% activity in the primary assay.

[2] = biological target: Alpha2C (Homo sapiens (Human), UniProt P18825); experiment: PDSP primary binding assay; conditions: primary binding assay at 10 μM
Experimental: as §1

[3] = biological target: Alpha1B (Homo sapiens (Human), UniProt P35368); experiment: PDSP primary binding assay; conditions: primary binding assay at 10 μM
Experimental: as §1

[4] = biological target: DAT (Homo sapiens (Human), UniProt Q01959); experiment: PDSP primary binding assay; conditions: primary binding assay at 10 μM
Experimental: as §1

[5] = biological target: 5-HT2B (Homo sapiens (Human), UniProt P41595); experiment: PDSP primary binding assay; conditions: primary binding assay at 10 μM
Experimental: as §1

[6] = test system: Calcium channel; experiment: PDSP primary binding assay; conditions: primary binding assay at 10 μM
Experimental: as §1

[7] = biological target: KOR (Homo sapiens (Human), UniProt P41145); experiment: PDSP primary binding assay; conditions: primary binding assay at 10 μM
Experimental: as §1

[8] = biological target: 5-HT6 (Homo sapiens (Human), UniProt P50406); experiment: PDSP primary binding assay; conditions: primary binding assay at 10 μM
Experimental: as §1

[9] = biological target: SERT (Homo sapiens (Human), UniProt P31645); experiment: PDSP primary binding assay; conditions: primary binding assay at 10 μM
Experimental: as §1

[10] = biological target: M2 (Homo sapiens (Human), UniProt P08172); experiment: PDSP primary binding assay; conditions: primary binding assay at 10 μM
Experimental: as §1

[11] = biological target: 5-HT2A (Homo sapiens (Human), UniProt P28223); experiment: PDSP primary binding assay; conditions: primary binding assay at 10 μM
Experimental: as §1

[12] = biological target: CLC-2 (Homo sapiens (Human), UniProt P51788); conditions: preliminary data, Xenopus oocytes
[13] = biological target: mGluR2 (Homo sapiens (Human), UniProt Q14416); experiment: PDSP functional assay; format: biochemical; conditions: only a functional assay was performed
Experimental: as §1

[14] = biological target: mGluR6 (Homo sapiens (Human), UniProt O15303); experiment: PDSP functional assay; format: biochemical; conditions: only a functional assay was performed
Experimental: as §1

[15] = biological target: mGluR8 (Homo sapiens (Human), UniProt O00222); experiment: PDSP functional assay; format: biochemical; conditions: only a functional assay was performed
Experimental: as §1

[16] = biological target: mGluR4 (Homo sapiens (Human), UniProt Q14833); experiment: PDSP functional assay; format: biochemical; conditions: only a functional assay was performed
Experimental: as §1

[17] = biological target: HERG (Homo sapiens (Human), UniProt Q12809); experiment: PDSP primary binding assay and secondary assay; conditions: for % (10 μM): primary binding assay at 10 μM
Experimental: as §1

[18] = biological target: 5-HT1A (Homo sapiens (Human), UniProt P08908); experiment: PDSP primary binding assay and secondary assay; conditions: for % (10 μM): primary binding assay at 10 μM; for Ki: secondary or functional assay
Experimental: as §1

[19] = biological target: M1 (Homo sapiens (Human), UniProt P11229); experiment: PDSP primary binding assay and secondary assay; conditions: for % (10 μM): primary binding assay at 10 μM
Experimental: as §1

[20] = biological target: M4 (Homo sapiens (Human), UniProt P08173); experiment: PDSP primary binding assay and secondary assay; conditions: for % (10 μM): primary binding assay at 10 μM
Experimental: as §1

[21] = biological target: Alpha2A (Homo sapiens (Human), UniProt P08913); experiment: PDSP primary binding assay and secondary assay; conditions: for % (10 μM): primary binding assay at 10 μM
Experimental: as §1

[22] = biological target: M5 (Homo sapiens (Human), UniProt P08912); experiment: PDSP primary binding assay and secondary assay; conditions: for % (10 μM): primary binding assay at 10 μM; for Ki: secondary or functional assay
Experimental: as §1

[23] = biological target: M3 (Homo sapiens (Human), UniProt P20309); experiment: PDSP primary binding assay and secondary assay; conditions: for % (10 μM): primary binding assay at 10 μM; for Ki: secondary or functional assay
Experimental: as §1

[24] = biological target: mGluR5 (Homo sapiens (Human), UniProt P41594); experiment: PDSP primary binding assay and secondary assay; conditions: for % (10 μM): primary binding assay at 10 μM; for Ki: secondary or functional assay
Experimental: as §1

[25] = biological target: CLC-1 (Homo sapiens (Human), UniProt P35523); experiment: two-electrode voltage clamp electrophysiology in Xenopus oocytes, CLC-1; format: cell-based; conditions: preliminary data, read-out: IC50 against CLC-1
[26] = biological target: A2A (Homo sapiens (Human), UniProt P29274); experiment: PDSP primary binding assay; conditions: primary binding assay at 10 μM
Experimental: as §1

[27] = biological target: V1B (Homo sapiens (Human), UniProt P47901); experiment: PDSP primary binding assay; conditions: primary binding assay at 10 μM
Experimental: as §1

[28] = biological target: V1A (Homo sapiens (Human), UniProt P37288); experiment: PDSP primary binding assay; conditions: primary binding assay at 10 μM
Experimental: as §1

[29] = test system: panel of CNS receptors, channels, and transporters; experiment: PDSP screen against panel of CNS receptors, transporters, and ion channels (overall); format: binding
Experimental: as §1

M3, sequence (P20309 whole entry): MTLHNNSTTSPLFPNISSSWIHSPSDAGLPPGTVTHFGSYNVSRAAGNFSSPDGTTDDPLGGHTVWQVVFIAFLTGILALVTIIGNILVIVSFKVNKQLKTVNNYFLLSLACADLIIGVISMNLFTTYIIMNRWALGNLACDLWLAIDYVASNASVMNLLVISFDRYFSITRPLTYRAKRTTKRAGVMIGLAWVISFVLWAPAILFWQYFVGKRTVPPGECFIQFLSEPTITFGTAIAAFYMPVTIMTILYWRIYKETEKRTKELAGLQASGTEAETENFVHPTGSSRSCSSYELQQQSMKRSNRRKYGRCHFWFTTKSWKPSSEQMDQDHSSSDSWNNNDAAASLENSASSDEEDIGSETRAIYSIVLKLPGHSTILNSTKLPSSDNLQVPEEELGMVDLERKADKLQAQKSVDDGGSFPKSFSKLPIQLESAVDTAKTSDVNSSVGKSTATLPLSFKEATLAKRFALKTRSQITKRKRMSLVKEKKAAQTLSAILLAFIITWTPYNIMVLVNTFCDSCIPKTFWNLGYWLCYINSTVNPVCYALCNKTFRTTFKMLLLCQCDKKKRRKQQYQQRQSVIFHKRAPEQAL
M1, sequence (P11229 whole entry): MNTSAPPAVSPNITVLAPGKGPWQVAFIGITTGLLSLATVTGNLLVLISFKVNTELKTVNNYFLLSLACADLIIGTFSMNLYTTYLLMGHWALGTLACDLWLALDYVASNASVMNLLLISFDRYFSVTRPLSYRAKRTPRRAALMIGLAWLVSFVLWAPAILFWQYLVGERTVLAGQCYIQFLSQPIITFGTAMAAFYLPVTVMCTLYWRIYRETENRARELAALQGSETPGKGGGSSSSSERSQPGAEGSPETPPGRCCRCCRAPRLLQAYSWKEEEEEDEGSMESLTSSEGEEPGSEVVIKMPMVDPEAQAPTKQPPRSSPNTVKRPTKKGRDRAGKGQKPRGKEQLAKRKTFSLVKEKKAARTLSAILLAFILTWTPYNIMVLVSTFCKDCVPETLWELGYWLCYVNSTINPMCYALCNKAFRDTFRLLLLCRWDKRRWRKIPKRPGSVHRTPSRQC
mGluR5, sequence (P41594 21-1212): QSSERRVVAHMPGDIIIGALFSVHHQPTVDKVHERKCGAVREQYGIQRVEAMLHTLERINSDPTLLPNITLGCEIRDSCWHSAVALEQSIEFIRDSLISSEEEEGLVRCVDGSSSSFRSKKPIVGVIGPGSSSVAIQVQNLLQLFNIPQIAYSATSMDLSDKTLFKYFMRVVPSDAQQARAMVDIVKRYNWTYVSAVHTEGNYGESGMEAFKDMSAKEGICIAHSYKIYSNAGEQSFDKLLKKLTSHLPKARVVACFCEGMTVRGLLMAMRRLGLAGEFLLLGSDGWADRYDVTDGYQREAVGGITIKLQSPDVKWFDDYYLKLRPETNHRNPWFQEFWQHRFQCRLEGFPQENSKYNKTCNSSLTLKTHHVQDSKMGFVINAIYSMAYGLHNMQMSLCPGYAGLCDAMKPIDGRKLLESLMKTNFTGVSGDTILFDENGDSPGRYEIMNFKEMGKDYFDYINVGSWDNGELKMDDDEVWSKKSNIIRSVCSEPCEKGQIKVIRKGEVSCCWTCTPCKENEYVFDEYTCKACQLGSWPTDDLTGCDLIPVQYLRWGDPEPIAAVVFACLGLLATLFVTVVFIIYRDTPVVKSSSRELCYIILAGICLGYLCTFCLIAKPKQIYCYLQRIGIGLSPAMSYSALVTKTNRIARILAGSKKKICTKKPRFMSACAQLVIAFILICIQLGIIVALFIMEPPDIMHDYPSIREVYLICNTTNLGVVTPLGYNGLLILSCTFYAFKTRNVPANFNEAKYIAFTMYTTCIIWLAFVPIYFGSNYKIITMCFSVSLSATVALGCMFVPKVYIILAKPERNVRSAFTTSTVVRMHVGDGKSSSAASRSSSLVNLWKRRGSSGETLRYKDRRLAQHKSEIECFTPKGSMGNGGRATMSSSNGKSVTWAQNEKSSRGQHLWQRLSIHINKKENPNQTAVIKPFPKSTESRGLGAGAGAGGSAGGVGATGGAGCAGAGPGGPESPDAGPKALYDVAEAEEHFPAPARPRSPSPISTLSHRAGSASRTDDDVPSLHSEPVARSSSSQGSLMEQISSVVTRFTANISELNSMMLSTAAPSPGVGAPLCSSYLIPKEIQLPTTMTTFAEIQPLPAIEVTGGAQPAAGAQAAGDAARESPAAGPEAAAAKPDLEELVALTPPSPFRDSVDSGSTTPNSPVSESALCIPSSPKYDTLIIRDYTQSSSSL
Alpha2A, sequence (P08913 whole entry): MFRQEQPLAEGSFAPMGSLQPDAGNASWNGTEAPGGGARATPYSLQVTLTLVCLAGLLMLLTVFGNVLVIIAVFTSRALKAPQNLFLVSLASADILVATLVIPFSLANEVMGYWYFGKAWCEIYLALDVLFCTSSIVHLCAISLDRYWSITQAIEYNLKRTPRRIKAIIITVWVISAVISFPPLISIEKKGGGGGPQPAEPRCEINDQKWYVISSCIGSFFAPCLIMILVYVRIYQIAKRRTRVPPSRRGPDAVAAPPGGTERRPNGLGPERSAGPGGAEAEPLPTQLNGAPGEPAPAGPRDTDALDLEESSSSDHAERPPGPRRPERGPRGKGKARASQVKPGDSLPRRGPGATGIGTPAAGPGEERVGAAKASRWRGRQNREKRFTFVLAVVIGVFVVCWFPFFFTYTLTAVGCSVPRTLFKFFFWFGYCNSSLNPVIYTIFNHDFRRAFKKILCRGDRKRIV
M5, sequence (P08912 whole entry): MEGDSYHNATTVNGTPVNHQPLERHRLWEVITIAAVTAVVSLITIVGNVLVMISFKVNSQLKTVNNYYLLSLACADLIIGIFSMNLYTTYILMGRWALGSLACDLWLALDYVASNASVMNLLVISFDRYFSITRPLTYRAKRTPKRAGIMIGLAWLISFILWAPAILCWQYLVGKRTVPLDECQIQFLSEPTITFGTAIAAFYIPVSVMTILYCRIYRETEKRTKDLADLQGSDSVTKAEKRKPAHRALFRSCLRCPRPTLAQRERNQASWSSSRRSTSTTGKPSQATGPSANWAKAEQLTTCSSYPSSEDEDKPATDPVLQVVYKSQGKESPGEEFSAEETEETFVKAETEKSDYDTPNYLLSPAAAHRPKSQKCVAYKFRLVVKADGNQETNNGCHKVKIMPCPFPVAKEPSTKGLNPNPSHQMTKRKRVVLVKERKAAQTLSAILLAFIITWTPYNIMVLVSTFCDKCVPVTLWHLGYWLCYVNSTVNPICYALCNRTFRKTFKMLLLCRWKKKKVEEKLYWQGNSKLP
5-HT1A, sequence (P08908 whole entry, species assumed): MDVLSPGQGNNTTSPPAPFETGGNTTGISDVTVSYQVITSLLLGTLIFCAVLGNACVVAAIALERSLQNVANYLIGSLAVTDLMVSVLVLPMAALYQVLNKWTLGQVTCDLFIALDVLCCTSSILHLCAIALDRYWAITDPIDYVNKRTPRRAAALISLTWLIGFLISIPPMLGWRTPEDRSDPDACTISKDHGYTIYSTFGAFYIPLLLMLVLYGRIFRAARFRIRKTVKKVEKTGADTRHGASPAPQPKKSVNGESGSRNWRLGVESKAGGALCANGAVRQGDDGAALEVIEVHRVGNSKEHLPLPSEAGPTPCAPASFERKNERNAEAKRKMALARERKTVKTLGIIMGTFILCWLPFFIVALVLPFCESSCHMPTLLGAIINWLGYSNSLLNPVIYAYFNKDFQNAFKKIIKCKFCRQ
HERG, sequence (Q12809 whole entry): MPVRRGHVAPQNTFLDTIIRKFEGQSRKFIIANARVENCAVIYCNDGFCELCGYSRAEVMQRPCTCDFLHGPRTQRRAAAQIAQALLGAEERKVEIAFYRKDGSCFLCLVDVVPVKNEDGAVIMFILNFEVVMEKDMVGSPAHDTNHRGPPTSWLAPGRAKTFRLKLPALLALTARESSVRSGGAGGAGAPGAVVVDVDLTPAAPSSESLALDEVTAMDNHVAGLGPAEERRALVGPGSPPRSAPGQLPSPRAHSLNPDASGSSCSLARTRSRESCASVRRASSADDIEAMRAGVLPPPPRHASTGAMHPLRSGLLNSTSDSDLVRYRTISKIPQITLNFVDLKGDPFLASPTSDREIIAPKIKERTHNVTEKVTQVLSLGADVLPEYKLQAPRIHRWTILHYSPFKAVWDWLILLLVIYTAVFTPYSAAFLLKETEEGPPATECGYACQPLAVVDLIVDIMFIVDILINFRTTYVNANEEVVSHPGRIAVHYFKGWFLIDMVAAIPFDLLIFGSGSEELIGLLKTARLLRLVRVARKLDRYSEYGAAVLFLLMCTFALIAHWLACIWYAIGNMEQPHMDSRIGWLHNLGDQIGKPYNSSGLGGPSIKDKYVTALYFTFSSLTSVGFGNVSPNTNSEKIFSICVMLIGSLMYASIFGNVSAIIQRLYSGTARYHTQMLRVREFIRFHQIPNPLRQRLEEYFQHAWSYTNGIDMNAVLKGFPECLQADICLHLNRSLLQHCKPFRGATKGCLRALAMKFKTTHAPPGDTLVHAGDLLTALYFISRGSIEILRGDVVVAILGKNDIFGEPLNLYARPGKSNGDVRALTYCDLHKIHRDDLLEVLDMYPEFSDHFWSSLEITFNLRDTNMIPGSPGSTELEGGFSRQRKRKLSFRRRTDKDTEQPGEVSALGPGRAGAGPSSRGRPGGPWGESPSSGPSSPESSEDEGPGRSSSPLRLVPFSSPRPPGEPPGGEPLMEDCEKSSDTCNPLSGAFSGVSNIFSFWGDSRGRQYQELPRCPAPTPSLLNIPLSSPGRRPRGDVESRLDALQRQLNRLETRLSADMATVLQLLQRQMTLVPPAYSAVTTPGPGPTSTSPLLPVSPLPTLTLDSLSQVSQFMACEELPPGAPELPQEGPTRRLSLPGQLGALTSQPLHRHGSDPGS

| Compound | % (10 μM) [1] [%] | % (10 μM) [2] [%] | % (10 μM) [3] [%] | % (10 μM) [4] [%] | % (10 μM) [5] [%] | % (10 μM) [6] [%] | % (10 μM) [7] [%] | % (10 μM) [8] [%] | % (10 μM) [9] [%] | % (10 μM) [10] [%] | % (10 μM) [11] [%] | % (10 μM) [17] [%] | % (10 μM) [18] [%] | Ki [18] [µM] | % (10 μM) [19] [%] | % (10 μM) [20] [%] | % (10 μM) [21] [%] | % (10 μM) [22] [%] | Ki [22] [µM] | % (10 μM) [23] [%] | also measured |
| --- | --- | --- | --- | --- | --- | --- | --- | --- | --- | --- | --- | --- | --- | --- | --- | --- | --- | --- | --- | --- | --- |
| O=C(O)c1ccccc1Nc1c(Cl)ccc(OCc2ccccc2)c1Cl [AK3-99B] | −13.11 | 17.28 | 4.33 | −17.73 | 14.38 | 12.22 | 29.90 | −10.67 | 4.65 | 14.57 | 19.70 | −15.95 | 50.00 | > 10 | 58.54 | −3.01 | 65.08 | 56.99 | > 10 | 65.66 | selectivity among CLC-1, CLC-2, CLC-Ka, CLC-Kb [12]: selective for CLC-2; Ki [13]: > 10 µM; Ki [14]: > 10 µM; Ki [15]: > 10 µM; Ki [16]: > 10 µM; Ki ([19]; secondary or functional assay): > 10 µM; Ki ([21]; secondary or functional assay): 3 µM; Ki [23]: > 10 µM; % (10 μM) [24]: 47.44%; Ki [24]: > 10 µM; IC50 [25]: > 250 µM |
| O=C(O)c1cccnc1Nc1c(Cl)ccc(OCc2ccccc2)c1Cl [AK3-238] | 22.04 | 3.41 | 4.90 | 9.23 | 45.16 | 23.69 | 4.11 | 18.68 | 30.25 | −8.25 | 18.91 | −43.87 | 53.99 | > 10 | 11.29 | 56.16 | −2.55 | 13.55 | > 10 | 54.64 | % (10 μM) [26]: −8.70%; % (10 μM) [27]: 40.53%; % (10 μM) [28]: 23.96%; Ki ([17]; secondary or functional assay): > 10 µM; Ki ([20]; secondary or functional assay): > 5 µM; Ki [23]: > 3 µM; % (10 μM) [24]: 57.39%; Ki [24]: > 10 µM; off-target effects among panel of CNS receptors, channels, and transporters [29]: no off-target effects |
